According to publication PMC8508980, “Design, Synthesis and Anticancer Profile of New 4-(1H-benzo[d]imidazol-1-yl)pyrimidin-2-amine-Linked Sulfonamide Derivatives with V600EBRAF Inhibitory Effect” (International Journal of Molecular Sciences, 2021):

Experiments:
Test in all cases: NCI 60 cell line screen
Assay type in all cases: cell-based
MDA-MB-231/ATCC = details: Homo sapiens, Breast Cancer, read-out: Percent growth
Method in brief: (§1)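 Human tumour lines were grown in RPMI 1640 with 5% FBS and 2 mM L-glutamine, then exposed 48 h at 37 °C to five concentrations (max 10 µM) after 24 h pre-incubation. Growth was measured by sulforhodamine B protein staining at 515 nm relative to time-zero and untreated controls.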

SF-268 = details: Homo sapiens; SF-268, CNS-Cancer; read-out: Percent growth
Method in brief: as §1

MDA-MB-435 = details: Homo sapiens; MDA-MB-435, Melanoma; read-out: Percent growth
Method in brief: as §1

HCC-2998 = details: Homo sapiens; HCC-2998, Colon Cancer; read-out: Percent growth
Method in brief: as §1

ACHN = details: Homo sapiens, Renal Cancer, read-out: Percent growth
Method in brief: as §1

786-0 = details: Homo sapiens; 786-0, Renal Cancer; read-out: Percent growth
Method in brief: as §1

IGROV1 = details: Homo sapiens, IGROV-1; IGROV1, Ovarian Cancer; read-out: Percent growth
Method in brief: as §1

TK-10 = details: Homo sapiens; TK-10, Renal Cancer; read-out: Percent growth
Method in brief: as §1

SF-539 = details: Homo sapiens; SF-539, CNS-Cancer; read-out: Percent growth
Method in brief: as §1

MALME-3M = details: Homo sapiens, Melanoma, read-out: Percent growth
Method in brief: as §1

HS 578T = details: Homo sapiens, Breast Cancer, read-out: Percent growth
Method in brief: as §1

MCF7 = details: Homo sapiens; MCF7, Breast Cancer; read-out: Percent growth
Method in brief: as §1

A549/ATCC = details: Homo sapiens, Non-Small Cell Lung Cancer, read-out: Percent growth
Method in brief: as §1

SK-MEL-28 = details: Homo sapiens; SK-MEL-28, Melanoma; read-out: Percent growth
Method in brief: as §1

HL-60(TB) = details: Homo sapiens, Leukemia, read-out: Percent growth
Method in brief: (§2)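 48 h continuous exposure, five doses, highest 10 µM; cells in RPMI 1640 + 5% FBS at 37 °C, 5% CO2. TCA fixation, sulforhodamine B staining, A515.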

NCI-H322M = details: Homo sapiens, Non-Small Cell Lung Cancer, read-out: Percent growth
Method in brief: as §1

LOX IMVI = details: Homo sapiens, Melanoma, read-out: Percent growth
Method in brief: as §2

OVCAR-5 = details: Homo sapiens; OVCAR-5, Ovarian Cancer; read-out: Percent growth
Method in brief: as §1

HOP-62 = details: Homo sapiens; HOP-62, Non-Small Cell Lung Cancer; read-out: Percent growth
Method in brief: as §2

UACC-62 = details: Homo sapiens; UACC-62, Melanoma; read-out: Percent growth
Method in brief: as §2

HCT-116 = details: Homo sapiens; HCT-116, Colon Cancer; read-out: Percent growth
Method in brief: as §1

| Compound | activity at 10 µM (MDA-MB-231/ATCC) | activity at 10 µM (SF-268) | activity at 10 µM (MDA-MB-435) | activity at 10 µM (HCC-2998) | activity at 10 µM (ACHN) | activity at 10 µM (786-0) | activity at 10 µM (IGROV1) | activity at 10 µM (TK-10) | activity at 10 µM (SF-539) | activity at 10 µM (MALME-3M) | activity at 10 µM (HS 578T) | activity at 10 µM (MCF7) | activity at 10 µM (A549/ATCC) | activity at 10 µM (SK-MEL-28) | activity at 10 µM (HL-60(TB)) | activity at 10 µM (NCI-H322M) | activity at 10 µM (LOX IMVI) | activity at 10 µM (OVCAR-5) | activity at 10 µM (HOP-62) | activity at 10 µM (UACC-62) | further results |
| --- | --- | --- | --- | --- | --- | --- | --- | --- | --- | --- | --- | --- | --- | --- | --- | --- | --- | --- | --- | --- | --- |
| O=S(=O)(NCCCNc1nccc(-n2cnc3ccccc32)n1)c1ccc(Br)cc1 [12k, N-(3-((4-(1H-benzo [d]imidazol-1-yl)pyrimidin-2-yl)amino)propyl)-4-bromo benzenesulfonamide] | 83.6% | 91.2% | 92.6% | 112% | 90.4% | 91.7% | 101% | 97.8% | 85.2% | 104% | 90% | 86.7% | 95% | 102% | 99.8% | 103% | 94.6% | 97% | 107% | 77.3% | activity at 10 µM (HCT-116): 90.3% |
| COc1ccc(S(=O)(=O)NCCCNc2nccc(-n3cnc4ccccc43)n2)cc1 [12m, N-(3-((4-(1H-benzo [d]imidazol-1-yl)pyrimidin-2-yl)amino)propyl)-4-methoxy benzenesulfonamide] | 84.1% | 91.6% | 98.7% | 111% | 88.2% | 95.9% | 91.5% | 103% | 83.9% | 107% | 84.8% | 85.1% | 106% | 106% | 110% | 104% | 93.4% | 99.6% | 94.8% | 76.3% | activity at 10 µM (HCT-116): 89.9% |
| O=S(=O)(NCCCNc1nccc(-n2cnc3ccccc32)n1)c1cccc2ccccc12 [12n, N-(3-((4-(1H-benzo [d]imidazol-1-yl)pyrimidin-2-yl)amino)propyl)naphthalene-1-sulfonamide] | 83.1% | 86.8% | 93.4% | 112% | 87.1% | 91.2% | 98.1% | 95.7% | 87.9% | 98.4% | 78.3% | 83.4% | 86.3% | 103% | 101% | 103% | 85.6% | 96.3% | 87.1% | 62% | activity at 10 µM (HCT-116): 75.9% |
